The subject of one assay is Staphylococcus aureus. Briefly: Antibacterial activity against methicillin-resistant Staphylococcus aureus incubated for 18 hrs by broth microdilution method. The assay is classed as functional.
The next assay relates to RBL-2H3. Briefly: Antiallergic activity in DNP-BSA-stimulated rat RBL2H3 cells assessed as inhibition of anti-DNP-IgE-mediated degranulation by measuring beta-hexosaminidase activity at 20 microg/ml pre-incubated for 1 hr followed by DNP-BSA stimulation by fluorescence assay relative to control. The assay is classed as functional.
Another assay concerns HL-60. Briefly: Cytotoxicity against human HL60 cells assessed as reduction in cell viability. It counts as functional, cell-based.

Converted amounts (≈) assume the structure as drawn.

Broadly, the MIC is the lowest concentration that inhibits growth of the organism. A low value points to greater potency. A word on the inhibition: it is the percentage by which the read-out fell short of the control. A word on the IC50: it is the concentration at which inhibition is half-maximal.

`C[C@@H]1C=CC(=O)[C@@]2(C)CC[C@H]3[C@@]12C[C@]1(C)CCC(C)(C)[C@]31C` yielded an MIC with Staphylococcus aureus of 8 µg/mL (≈ 26.6 µM).

Regarding `C[C@H]1[C@H](O)CC(=O)[C@]2(C)CC[C@H]3[C@@H]4[C@@](C)(CO)CC[C@]4(C)C[C@]132`, in the assay with RBL-2H3, the inhibition at 20 µg/mL came to 4%.

Consider `C[C@@H]1C=CC(=O)[C@@]2(C)CC[C@@H]3[C@@H]4[C@@](C)(CC[C@@]4(C)CO)C[C@@]132`, for which the inhibition at 20 µg/mL in the assay on RBL-2H3 came to 10%. In addition, the IC50 in the assay with HL-60 stood at 38 nM.

In the case of `CCOC(=O)N1CCC(=C2c3ccc(Cl)cc3CCc3cccnc32)CC1` [LORATADINE], the inhibition at 20 µg/mL in the assay with RBL-2H3 is 35%.

Consider `C[C@@H]1C[C@@H](O)[C@H](C)[C@@]12CCC1=C2C[C@@]2(C)CC[C@](C)(C(=O)O)[C@@H]12`, for which the inhibition at 20 µg/mL in the assay on RBL-2H3 came to 18%.

The record behind these values is ChEMBL document CHEMBL4190258, “Spirograterpene A, a Tetracyclic Spiro-Diterpene with a Fused 5/5/5/5 Ring System from the Deep-Sea-Derived Fungus Penicillium granulatum MCCC 3A00475” (J Nat Prod, 2017).
